Data as given in US8703761B2, “Organic compounds” (Novartis AG, priority 2008, dated 2014).

Target: human DGAT1 (Homo sapiens (Human), UniProt O75907)
Test: DGAT1 Inhibition Assay
Type: biochemical
Details: membrane preparation from Sf9 cells overexpressing human (His)6DGAT1; LC/MS/MS readout
Experimental: The enzyme preparation used in this assay is a membrane preparation from Sf9 cells overexpressing human (His)6DGAT1. During all steps samples were chilled to 4° C. Sf9 cells expressing human (His)6DGAT1 were thawed at room temperature and re-suspended at a 10:1 ratio (mL buffer/g of cells) in 50 mM HEPES, 1× Complete Protease Inhibitor, pH 7.5. The re-suspended pellet was homogenized for 1 min using a Brinkman PT 10/35 homogenizer with a 20 mm generator. Cells were lysed using Avestin Emulsiflex (chilled to 4° C.) at 10000-15000 psi. Lysate was centrifuged at 100,000×g for 1 h at 4° C. Supernatant was removed and pellets were re-suspended in 50 mM HEPES, 1× Complete Protease Inhibitor, pH 7.5 at ⅙ the volume of supernatant. Re-suspended pellets were pooled and homogenized with 10 strokes of a Glas-Col motor driven teflon pestle on setting 70. The protein concentration of the membrane preparation was quantified using BCA protein assay with 1% SDS. The membrane preparation was aliquoted, frozen on dry ice, and stored at −80° C.
For 50 mL, 25 mL of 0.2 M HEPES stock buffer, 0.5 mL of 1 M MgCl2 ([…]), and 24.5 mL of milli-Q H2O are added to the 55 mL Wheaton Potter-Elvehjem homogenizer. Enzyme preparation (0.1 mL) is added to buffer and the mixture is homogenized with 5 strokes on ice using the Glas-Col variable speed homogenizer system on setting 70.
For 50 mL, 0.5 mL 10 mM diolein is added to 9.5 mL of EtOH in a 50 mL Falcon screw cap conical centrifuge tube. Five mL of 10 mM sodium acetate pH 4.5 is added followed by 0.5 mL of 10 mM oleoyl-CoA. Finally, the remaining 4.5 mL of 10 mM sodium acetate pH 4.5 is added followed by 30 mL of milli-Q H20. The solution should be gently agitated by hand to induce mixing. The final concentrations of EtOH and sodium acetate are 20% and 2 mM, respectively.
Dry compounds are dissolved in the appropriate volume of DMSO to a final concentration of 10 mM. A 10-point, 3-fold dose response is used to evaluate compound potency. All dilutions are performed in DMSO in a Greiner 384-well microplate. • 1. 2 μL of compound in DMSO is added to the appropriate wells, 2 μL of DMSO is added to 100% activity and 100% inhibition controls. • 2. 25 μL of enzyme mix is added to all wells and plate(s) are incubated for 10 min at RT. • 3. 10 μL of 20% acetic acid quench is added to 100% inhibition control wells. Plate(s) are vortexed using Troemner multi-tube vortexer (setting 7 for 10 sec). • 4. 25 μL of substrate mix is added to all wells. Plate(s) are vortexed using Troemner multi-tube vortexer (setting 7 for 10 sec). Plate(s) are incubated for 30 min at RT. • 5. 10 μL of 20% acetic acid quench is added to all wells. Plate(s) are vortexed using Troemner multi-tube vortexer (setting 7 for 10 sec). • 6. 50 μL of 1-butanol w/glyceryl tripalmitoleate internal standard is added to all wells. • 7. Plate(s) are sealed with super pierce strong plate sealer using the thermo-sealer. • 8. Plate(s) are vortexed using Troemner multi-tube vortexer (setting 10 for 5 min). • 9. Plate(s) are centrifuged at 162×g (1000 rpm for GH-3.8 rotor) for 5 min using Beckman GS-6R tabletop centrifuge.
Samples were analyzed by LC/MS/MS using a Waters 1525μ LC and Quattro Micro API MS. Where indicated, tripalmitolein was used as an internal standard to control for instrument variation.
Data is converted to % inhibition prior to curve fitting using the following equation: […]

Sequence of human DGAT1 (O75907 whole entry): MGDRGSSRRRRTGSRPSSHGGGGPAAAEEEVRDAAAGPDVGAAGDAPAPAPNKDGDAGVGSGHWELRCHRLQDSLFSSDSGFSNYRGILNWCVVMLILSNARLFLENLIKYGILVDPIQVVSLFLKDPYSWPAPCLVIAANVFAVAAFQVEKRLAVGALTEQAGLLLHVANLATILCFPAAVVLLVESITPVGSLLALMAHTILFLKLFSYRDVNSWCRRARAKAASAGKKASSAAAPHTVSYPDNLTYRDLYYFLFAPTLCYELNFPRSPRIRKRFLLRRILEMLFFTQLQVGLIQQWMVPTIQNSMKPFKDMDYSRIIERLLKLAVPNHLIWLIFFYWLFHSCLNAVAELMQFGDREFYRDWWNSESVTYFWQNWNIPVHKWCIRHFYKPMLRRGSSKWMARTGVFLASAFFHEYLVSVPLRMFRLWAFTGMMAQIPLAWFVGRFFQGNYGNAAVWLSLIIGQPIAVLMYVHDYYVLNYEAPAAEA

Structure (SMILES)	IC50
O=C(Nc1cc(-c2ccccc2)c2ccccc2n1)C1CCCN1C(=O)CC1CCCC1 (stereo in doubt) [Example 8-1, (S)-1-(2-Cyclopentyl-acetyl)-pyrrolidine-2-carboxylic acid (4-phenyl-quinolin-2-yl)-amide]	54.5 nM
CCOc1ccc(C(=O)NC(C)(C)C(=O)Nc2nc(-c3ccccc3)c(Cc3ccccc3)s2)cc1OCC [Example 1-1, N-[1-(5-Benzyl-4-phenyl-thiazol-2-ylcarbamoyl)-1-methyl-ethyl]-3,4-diethoxy-benzamide]	60.5 nM
CC(C)(NS(=O)(=O)c1ccc(F)cc1)C(=O)Nc1nc(-c2ccccc2)c(Cc2ccccc2)s1 [Example 1-6, N-(5-Benzyl-4-phenyl-thiazol-2-yl)-2-(4-fluoro-benzenesulfonylamino)-2-methyl-propionamide]	241 nM
COc1ccccc1C(=O)NC(C)(C)C(=O)Nc1nc(-c2ccccc2)c(Cc2ccccc2)s1 [Example 1-8, N-[1-(5-Benzyl-4-phenyl-thiazol-2-ylcarbamoyl)-1-methyl-ethyl]-2-methoxy-benzamide]	8.5 nM
CC(C)(NC(=O)c1ccc2occc2c1)C(=O)Nc1nc(-c2ccccc2)c(Cc2ccccc2)s1 [Example 1-28, Benzofuran-5-carboxylic acid [1-(5-benzyl-4-phenyl-thiazol-2-ylcarbamoyl)-1-methyl-ethyl]-amide]	11 nM
CC(C)(NC(=O)c1ccccn1)C(=O)Nc1nc(-c2ccccc2)c(Cc2ccccc2)s1 [Example 1-29, Pyridine-2-carboxylic acid [1-(5-benzyl-4-phenyl-thiazol-2-ylcarbamoyl)-1-methyl-ethyl]-amide]	3.5 nM
Cc1ccccc1NC(=O)N1CCCC1C(=O)Nc1nc(-c2ccccc2)c(Cc2ccccc2)s1 (stereo not shown) [Example 4-2, Pyrrolidine-1,2-dicarboxylic acid 2-[(5-benzyl-4-phenyl-thiazol-2-yl)-amide] 1-o-tolylamide]	232 nM
O=C(Nc1nc(-c2ccccc2)c(Cc2ccccc2)s1)[C@@H]1CCCN1C(=O)Nc1ccc(C(F)(F)F)cc1F [Example 4-9, (S)-Pyrrolidine-1,2-dicarboxylic acid 2-[(5-benzyl-4-phenyl-thiazol-2-yl)-amide] 1-[(2-fluoro-4-trifluoromethyl-phenyl)-amide]]	473 nM
CC(C)(NC(=O)c1ccc(OC(F)(F)F)cc1)C(=O)Nc1nc(-c2ccc(F)cc2)c(Oc2ccc(F)cc2)s1 [Example 6-1, N-{1-[5-(4-Fluoro-phenoxy)-4-(4-fluoro-phenyl)-thiazol-2-ylcarbamoyl]-1-methyl-ethyl}-4-trifluoromethoxybenzamide]	910 nM
CC(C)(NC(=O)N1CCOCC1)C(=O)Nc1nc(-c2ccc(F)cc2)c(Oc2ccc(F)cc2)s1 [Example 6-2, Morpholine-4-carboxylic acid {1-[5-(4-fluoro-phenoxy)-4-(4-fluoro-phenyl)-thiazol-2-ylcarbamoyl]-1-methyl-ethyl}-amide]	52.5 nM
CC(C)(NC(=O)c1cccnc1)C(=O)Nc1nc(-c2ccc(F)cc2)c(Oc2ccc(F)cc2)s1 [Example 6-9, N-{1-[5-(4-Fluoro-phenoxy)-4-(4-fluoro-phenyl)-thiazol-2-ylcarbamoyl]-1-methyl-ethyl}-nicotinamide]	622 nM
CC(C)(NC(=O)c1cncs1)C(=O)Nc1nc(-c2ccc(F)cc2)c(Oc2ccc(F)cc2)s1 [Example 6-14, Thiazole-5-carboxylic acid {1-[5-(4-fluoro-phenoxy)-4-(4-fluoro-phenyl)-thiazol-2-ylcarbamoyl]-1-methyl-ethyl}-amide]	197 nM
Cc1ccc(-c2cc(NC(=O)[C@@H]3CCCN3C(=O)OC(C)(C)C)nc(-c3ccccc3)c2)cc1 [Example 8-2, (S)-2-(6-Phenyl-4-p-tolyl-pyridin-2-ylcarbamoyl)-pyrrolidine-1-carboxylic acid tert-butyl ester]	240 nM
CC1(C(=O)NC(C)(C)C(=O)Nc2nc(C(F)(F)F)c(C(=O)c3ccc(F)cc3)s2)CC1 [Example 12-3, 1-Methyl-cyclopropanecarboxylic acid {1-[5-(4-fluoro-benzoyl)-4-trifluoromethyl-thiazol-2-ylcarbamoyl]-1-methyl-ethyl}-amide]	1180 nM
CC(C)(NC(=O)N1CCCOCC1)C(=O)Nc1nc(C(F)(F)F)c(C(=O)c2ccc(F)cc2)s1 [Example 12-4, [1,4]Oxazepane-4-carboxylic acid {1-[5-(4-fluoro-benzoyl)-4-trifluoromethyl-thiazol-2-ylcarbamoyl]-1-methyl-ethyl}-amide]	2080 nM
CN1CCC[C@H]1C(=O)NC(C)(C)C(=O)Nc1nc(-c2ccc(F)cc2)n(Cc2ccccc2)n1 [Example 14-3, (S)-1-Methyl-pyrrolidine-2-carboxylic acid {1-[1-benzyl-5-(4-fluoro-phenyl)-1H-[1,2,4]triazol-3-ylcarbamoyl]-1-methyl-ethyl}-amide]	2300 nM
CC(C)(NC(=O)c1ccccn1)C(=O)Nc1nc(-c2ccc(F)cc2)n(Cc2ccccc2)n1 [Example 14-4, Pyridine-2-carboxylic acid {1-[1-benzyl-5-(4-fluoro-phenyl)-1H-[1,2,4]triazol-3-ylcarbamoyl]-1-methyl-ethyl}-amide]	225 nM
CC(C)(NC(=O)c1cnco1)C(=O)Nc1nc(-c2ccc(F)cc2)n(Cc2ccccc2)n1 [Example 14-24, Oxazole-5-carboxylic acid {1-[1-benzyl-5-(4-fluoro-phenyl)-1H-[1,2,4]triazol-3-ylcarbamoyl]-1-methyl-ethyl}-amide]	1750 nM
Cc1cc(C(=O)NC(C)(C)C(=O)Nc2nc(-c3ccc(F)cc3)n(Cc3ccccc3)n2)no1 [Example 14-28, 5-Methyl-isoxazole-3-carboxylic acid {1-[1-benzyl-5-(4-fluoro-phenyl)-1H-[1,2,4]triazol-3-ylcarbamoyl]-1-methyl-ethyl}-amide]	6130 nM
